In patent publication US12201668B2, “Adiponectin peptidomimetics formulations” (ALLYSTA PHARMACEUTICALS, INC., priority 2018, dated 2025):
Non-standard residues stand in square brackets, D forms with d. Residues, ends and D or L forms follow the SMILES beside them. Nva = CCC[C@H](N)C(=O)O

What was measured:
[1] = Solubility of the peptide in acetate buffer formulation; assay type: physicochemical
Protocol: Vehicle was prepared by dissolving propylene glycol (1.77 g) and Tyloxapol (0.1 g) in 97 mL of 35 mM of Acetic Acid/Sodium Acetate buffer, pH 4.3-4.5 by mixing until uniform. The peptide D-Asn-Ile-Pro-Nva-Leu-Tyr-D-Ser-Phe-Ala-D-Ser-NH2 (API, also referred to as ALY688 or ALY-688 herein) (1.0 g) was added to the vehicle and mixed until dissolved. The pH was adjusted with small amounts of Acetic Acid or Sodium Hydroxide. The formulation was sterile-filtered.
A concentration of 12 mg/g Acetate buffer gave a clear solution at a pH 4.5.

[2] = test system: rabbit atropine-induced dry eye model; experiment: Slit-lamp examination of the anterior segment (McDonald-Shattuck) in atropine-induced dry eye study; assay type: in vivo, NZW rabbits; conditions: ALY688 0.4% ophthalmic TID (Formula 22); baseline and Day 13
Protocol: (§1) The purpose of this study was to evaluate the efficacy of a topical ALY688 ophthalmic formulation according Formula 22 in Example 2 in a rabbit atropine-induced dry eye model.
(§2) Clinical evaluations of corneal fluorescein staining, tear break-up time and tear volume were determined at five timepoints during the 14 day dosing period. Pre-dose ophthalmic anterior segment slit-lamp exams with corneal fluorescein staining, Tear Volume (TV) and Tear Break-Up Time (TBUT) assessments were performed. Animals were assigned to treatment groups such that the average baseline TV and TBUT values were approximately equal across groups.
(§3) Study Groups were assigned as follows: • Group 1: Atropine+ALY688 0.4% ophthalmic TID, (n=6) • Group 2: Atropine+Vehicle ophthalmic TID, (n=6) • Group 3: Atropine only (n=4)
Examinations: Slit-lamp examinations of the anterior segment were performed at baseline and on Day 13 according to the McDonald-Shattuck Scoring System including conjunctival congestion, swelling, and discharge, corneal opacity, pannus, anterior chamber cells and flare, iris, light reflex, and lens.

[3] = test system: rabbit atropine-induced dry eye model; experiment: Corneal epithelial fluorescein staining in atropine-induced dry eye; assay type: in vivo, NZW rabbits
Protocol: as §1, §2, §3
(§4) Test article dosing began on Day −1.
(§5) Atropine eye drops (TID) began on Day 0.
(§6) Dry eye evaluations were performed on Days 1, 3, 7, 10, and 13.
Corneal epithelial staining: Corneal staining was assessed immediately after the TBUT measurement, after rinsing excess fluorescein. Fluorescein uptake was graded according to the NEI/Industry Grading System, in 5 separate areas of the cornea using a 0-3 grading scale maximum score: 15). Total staining score was calculated for each eye.

[4] = test system: rabbit atropine-induced dry eye model; experiment: Tear Break-Up Time (TBUT) in atropine-induced dry eye; assay type: in vivo, NZW rabbits
Protocol: as §1, §2, §3, §4, §5, §6
Tear Breakup Time (TBUT): TBUT was determined after instillation of 6 μL of 2% sodium fluorescein in sterile saline onto the lower eyelid. After manually blinking the eye, the time for black spots or streaks to appear on the cornea under cobalt filter illumination was recorded. The procedure was conducted three times consecutively, and the average of three readings was used.

[5] = test system: rabbit atropine-induced dry eye model; experiment: Tear Volume (TV, Schirmer Tear Test strips) in atropine-induced dry eye; assay type: in vivo, NZW rabbits
Protocol: as §1, §2, §3, §4, §5, §6
Tear Volume (TV): Tear volume was measured using Schirmer Tear Test strips (Intervet, Inc., Summit, NJ), by placing the strip into the lower fornix for 60 seconds and recording the mm distance of the wetted area.

[6] = test system: rabbit atropine-induced dry eye model; experiment: Atropine-induced dry eye in rabbits, overall conclusion; assay type: in vivo, NZW rabbits
Protocol: as §1, §2, §3, §4, §5, §6
The evaluator was masked as to treatment group for all assessments.

[7] = integrated AUC response vs baseline, p<0.005, FIG. 4

Question: Which “concentration that gave a clear solution” value ([1]; Acetate buffer, pH 4.5) does the source give for `CCC[C@H](NC(=O)[C@@H]1CCCN1C(=O)[C@@H](NC(=O)[C@H](N)CC(N)=O)[C@@H](C)CC)C(=O)N[C@@H](CC(C)C)C(=O)N[C@@H](Cc1ccc(O)cc1)C(=O)N[C@H](CO)C(=O)N[C@@H](Cc1ccccc1)C(=O)N[C@@H](C)C(=O)N[C@H](CO)C(N)=O` [ALY688, D-Asn-Ile-Pro-Nva-Leu-Tyr-D-Ser-Phe-Ala-D-Ser-NH2] (H-[dN]IP[Nva]LY[dS]FA[dS]-NH2; N-terminus assumed) here?
Answer: Its value is 12 mg/g.

Question: What about the “solubility of the peptide” value ([1]; formulation of Example 1) of the same compound?
Answer: The value was “significantly increased”.

Question: And the “anterior segment slit-lamp exam findings related to test article” value [2]?
Answer: The value was “no abnormal findings”.

Question: And the “corneal fluorescein staining vs vehicle control group” value ([3]; ALY688 0.4% TID, all evaluation timepoints, statistically significant on Days 1, 3, 10 (p<0.05))?
Answer: Its value is “lower”.

Question: And the “corneal staining, integrated analysis at all post-baseline timepoints vs vehicle” value [3, 7]?
Answer: Its value is “highly statistically significant improvement”.

Question: And the TBUT decrease ([4]; ALY688 0.4% TID, Day 1 of atropine treatment (vehicle group 50%))?
Answer: The TBUT decrease was 32%.

Question: What about the “TBUT level by Day 7” value ([4]; ALY688 0.4% TID, Day 7) of the same compound?
Answer: The value was “returned to baseline TBUT levels”.

Question: And the “TBUT compared to vehicle” value ([4]; ALY688 0.4% TID, Days 7, 10 and 13 (p<0,01))?
Answer: Its value is “statistically significant higher”.

Question: What about the “TBUT level through the remainder of the study” value ([4]; ALY688 0.4% TID, after Day 7 to Day 13) of the same compound?
Answer: The value was “maintained normal TBUT levels”.

Question: What about the “TBUT compared to atropine-only group” value ([4]; ALY688 0.4% TID, all post-baseline days, 2-sample two-tailed t-test) of the same compound?
Answer: Its value is “statistically significantly higher”.

Question: What about the “TBUT, integrated analysis at all post-baseline timepoints vs vehicle” value [4, 7] of the same compound?
Answer: The value was “highly statistically significant improvement”.

Question: And the “Tear Volume vs vehicle group on Day 13” value ([5]; ALY688 0.4% TID, Day 13 (p=0.01), borderline (p=0.08) on Days 1 and 7)?
Answer: The value was “statistically significantly higher”.

Question: And the “Tear Volume vs vehicle control group” value ([5]; ALY688 0.4% TID, all timepoints)?
Answer: Its value is “consistently higher”.

Question: What about the “Tear Volume, integrated analysis at all post-baseline timepoints vs vehicle” value [5, 7] of the same compound?
Answer: Its value is “highly statistically significant improvement”.

Question: And the “reduction of dry eye signs” value ([6]; ALY688 ophthalmic solution 0.4% TID, 14 day dosing)?
Answer: The value was “highly effective at reducing dry eye signs”.

Question: And the onset of effects ([6]; after initiation of ALY688 treatment)?
Answer: The onset of effects was “as early as two days after initiation”.
